For 14 compounds, IC50 results are on record in patent publication US20240116985A1, “STAPLED PEPTIDES AND METHODS THEREOF” (priority 2020, published 2024).

The assay addresses T1, full-length beta-Catenin (Uniprot ID P35222) (Homo sapiens, UniProt P35222).
T1 construct: 10 nM full-length beta-Catenin (Uniprot ID P35222)
T1 sequence (P35222 1-781): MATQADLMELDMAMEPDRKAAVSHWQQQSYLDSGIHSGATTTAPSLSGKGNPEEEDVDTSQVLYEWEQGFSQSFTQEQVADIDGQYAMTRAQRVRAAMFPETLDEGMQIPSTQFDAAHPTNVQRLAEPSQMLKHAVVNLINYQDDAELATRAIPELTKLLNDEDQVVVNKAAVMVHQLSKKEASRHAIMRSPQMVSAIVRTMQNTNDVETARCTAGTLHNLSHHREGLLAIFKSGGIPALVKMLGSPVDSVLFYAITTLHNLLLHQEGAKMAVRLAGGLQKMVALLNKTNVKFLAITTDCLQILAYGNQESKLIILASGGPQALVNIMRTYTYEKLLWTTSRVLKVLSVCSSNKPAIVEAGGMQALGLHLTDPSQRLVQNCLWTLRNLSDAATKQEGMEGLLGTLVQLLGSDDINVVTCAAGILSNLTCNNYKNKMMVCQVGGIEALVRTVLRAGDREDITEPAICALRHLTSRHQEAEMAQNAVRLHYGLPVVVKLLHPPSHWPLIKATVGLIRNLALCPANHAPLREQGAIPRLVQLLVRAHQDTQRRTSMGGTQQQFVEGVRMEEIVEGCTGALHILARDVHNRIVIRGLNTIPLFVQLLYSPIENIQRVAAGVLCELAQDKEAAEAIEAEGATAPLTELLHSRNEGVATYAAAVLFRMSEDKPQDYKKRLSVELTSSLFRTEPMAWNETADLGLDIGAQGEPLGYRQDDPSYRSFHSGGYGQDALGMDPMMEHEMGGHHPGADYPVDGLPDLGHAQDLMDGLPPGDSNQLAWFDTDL
The assay is described as follows: Fluorescence polarization IC50 (beta-catenin / 5FAM-TCF4 10-53 competition). Format: binding. To be noted: fluorescence polarization; read-out: beta-Catenin FP IC50.

SMILES strings stand for the structures. Starred links: 1 amine or outer side, 2 acyl side, 3 side chain; linkers in the order of their positions; H or OH if unused. Positions of bridges follow the written chain, without caps; N, C: chain ends. Non-standard residues stand in square brackets, D forms with d. Residues, ends and D or L forms follow the SMILES beside them. X3 = O=C([C@]1(CC=[*:3])CCCN1[*:1])[*:2]; Bta = N[C@@H](Cc1csc2ccccc12)C(=O)O; tBuAla = CC(C)(C)C[C@H](N)C(=O)O; 3Thi = N[C@@H](Cc1ccsc1)C(=O)O; R5 = C=CCCC[C@@](C)(N)C(=O)O; S5 = C=CCCC[C@](C)(N)C(=O)O; Aib = CC(C)(N)C(=O)O

Broadly, the IC50 is the concentration needed to halve the response being measured.

Turning to `CC(=O)N1CCC[C@]12CCCCCCC1(CCCCCCCCOC(=O)N3CC[C@@](C(=O)N[C@@H](Cc4ccsc4)C(=O)N[C@@H](Cc4csc5ccccc45)C(=O)N[C@H](C(N)=O)C(C)C)(C3)NC(=O)[C@H]([C@@H](C)O)NC(=O)[C@H](Cc3ccccc3)NC(=O)[C@H](C)NC(=O)[C@H](C)NC(=O)[C@H](CN(CC(=O)O)CC(F)(F)F)NC(=O)[C@H](CC(=O)O)NC1=O)NC(=O)[C@H](CC(C)(C)C)NC(=O)[C@H](CC(=O)O)NC2=O` (stereo partly drawn) [I-1758, Ac-PL3-Asp-Npg-B5-Asp-TfeGA-Ala-Ala-Phe-Thr-PyrS2-3Thi-BztA-Val-NH2], the half-maximal inhibitory concentration (IC50) worked out at 235 nM.

As for `CC(=O)N1CCC[C@]12CCCCCCC1(CCCCCCCCOC(=O)N3CC[C@@](C(=O)N[C@@H](Cc4ccsc4)C(=O)N[C@@H](Cc4csc5ccccc45)C(=O)N[C@@H](CC(C)C)C(N)=O)(C3)NC(=O)[C@H](CC(C)C)NC(=O)[C@H](Cc3ccccc3)NC(=O)[C@H](C)NC(=O)[C@H](CCCCNC(C)C)NC(=O)[C@H](CN(CC(=O)O)CC(F)(F)F)NC(=O)[C@H](CC(=O)O)NC1=O)NC(=O)[C@H](CC(C)(C)C)NC(=O)[C@H](CC(=O)O)NC2=O` (stereo partly drawn) [I-1765, Ac-PL3-Asp-Npg-B5-Asp-TfeGA-iPrLys-Ala-Phe-Leu-PyrS2-3Thi-BztA-Leu-NH2], the half-inhibitory concentration (IC50) is 667 nM.

As for `CC(=O)N1CCC[C@]12CCCCCCC1(CCCCCCCCOC(=O)N3CC[C@@](C(=O)N[C@@H](Cc4ccsc4)C(=O)N[C@@H](Cc4csc5ccccc45)C(=O)N[C@@H](CC(C)C)C(N)=O)(C3)NC(=O)[C@H]([C@@H](C)O)NC(=O)[C@H](Cc3ccccc3)NC(=O)[C@H](C)NC(=O)[C@H](CCCCNC(C)C)NC(=O)[C@H](CN(CC(=O)O)CC(F)(F)F)NC(=O)[C@H](CC(=O)O)NC1=O)NC(=O)[C@H](CC(C)(C)C)NC(=O)[C@H](CC(=O)O)NC2=O` (stereo partly drawn) [I-1766, Ac-PL3-Asp-Npg-B5-Asp-TfeGA-iPrLys-Ala-Phe-Thr-PyrS2-3Thi-BztA-Leu-NH2], the IC50 worked out at 267 nM.

Consider `CC(=O)N1CCC[C@]12CCCCCCC1(CCCCCCCCOC(=O)N3CC[C@@](C(=O)N[C@@H](Cc4ccsc4)C(=O)N[C@@H](Cc4csc5ccccc45)C(=O)N[C@@H](Cc4ccccc4)C(N)=O)(C3)NC(=O)[C@H](CC(C)C)NC(=O)[C@H](Cc3ccccc3)NC(=O)[C@H](C)NC(=O)[C@H](CCCCNC(C)C)NC(=O)[C@H](CN(CC(=O)O)CC(F)(F)F)NC(=O)[C@H](CC(=O)O)NC1=O)NC(=O)[C@H](CC(C)(C)C)NC(=O)[C@H](CC(=O)O)NC2=O` (stereo partly drawn) [I-1767, Ac-PL3-Asp-Npg-B5-Asp-TfeGA-iPrLys-Ala-Phe-Leu-PyrS2-3Thi-BztA-Phe-NH2], for which the concentration for half-maximal inhibition (IC50) was 327 nM.

`CC(=O)N1CCC[C@]12CCCCCCC1(CCCCCCCCOC(=O)N3CC[C@@](C(=O)N[C@@H](Cc4ccsc4)C(=O)N[C@@H](Cc4csc5ccccc45)C(=O)N[C@H](C(N)=O)C(C)C)(C3)NC(=O)[C@H](CC(C)C)NC(=O)[C@H](Cc3ccccc3)NC(=O)[C@H](C)NC(=O)[C@H](CCCCNC(C)C)NC(=O)[C@H](CN(CC(=O)O)CC(F)(F)F)NC(=O)[C@H](CC(=O)O)NC1=O)NC(=O)[C@H](CC(C)(C)C)NC(=O)[C@H](CC(=O)O)NC2=O` (stereo partly drawn) [I-1769, Ac-PL3-Asp-Npg-B5-Asp-TfeGA-iPrLys-Ala-Phe-Leu-PyrS2-3Thi-BztA-Val-NH2]: the IC50 was 419 nM.

As for `CC(=O)N1CCC[C@]12CC=CCCCC1(CCCC=CCCCOC(=O)N3CC[C@@](C(=O)N[C@@H](Cc4ccsc4)C(=O)N[C@@H](Cc4csc5ccccc45)C(=O)N[C@@H](CCC(N)=O)C(N)=O)(C3)NC(=O)[C@H](CC(C)C)NC(=O)[C@H](Cc3ccccc3)NC(=O)[C@H](C)NC(=O)[C@H](C)NC(=O)[C@H](CN(CC(=O)O)CC(F)(F)F)NC(=O)[C@H](C(C)(C)C(=O)O)NC1=O)NC(=O)[C@H](CC(C)(C)C)NC(=O)[C@H](CC(=O)O)NC2=O` (stereo partly drawn) [I-1771, Ac-PL3-Asp-Npg-B5-bMe2Asp-TfeGA-Ala-Ala-Phe-Leu-PyrS2-3Thi-BztA-Gln-NH2], the half-maximal inhibitory concentration (IC50) worked out at 209 nM.

Consider `CC(=O)N1CCC[C@]12CC=CCCCC1(CCCC=CCCCOC(=O)N3CC[C@@](C(=O)N[C@@H](Cc4ccsc4)C(=O)N[C@@H](Cc4csc5ccccc45)C(=O)N[C@@H](CCC(N)=O)C(N)=O)(C3)NC(=O)[C@H](CC(C)C)NC(=O)[C@H](Cc3ccccc3)NC(=O)[C@H](C)NC(=O)[C@H](C)NC(=O)[C@H](CN(CC(=O)O)CC(F)(F)F)NC(=O)[C@H](CC(=O)O)NC1=O)NC(=O)[C@H](CC1CCCCC1)NC(=O)[C@H](CC(=O)O)NC2=O` (stereo partly drawn) [I-1775, Ac-PL3-Asp-Cha-B5-Asp-TfeGA-Ala-Ala-Phe-Leu-PyrS2-3Thi-BztA-Gln-NH2], for which the IC50 is 15 nM.

Turning to `CC(=O)N1CCC[C@]12CC=CCCC[C@@](C)(C(=O)N[C@@H](CC(=O)O)C(=O)N[C@@H](CC(=O)O)C(=O)N[C@@H](C)C(=O)N[C@@H](C)C(=O)N[C@@H](Cc1ccccc1)C(=O)N[C@]1(C)CCCC=CCCC[C@@](C)(C(=O)N[C@@H](C)C(N)=O)NC(=O)[C@H](Cc3csc4ccccc34)NC(=O)[C@H](Cc3ccsc3)NC(=O)[C@H](C)NC1=O)NC(=O)[C@H](CC(C)(C)C)NC(=O)[C@H](CC(=O)O)NC2=O` [I-1778, Ac-PL3-Asp-Npg-S5-Asp-Asp-Ala-Ala-Phe-R5-Ala-3Thi-BztA-S5-Ala-NH2] (Ac-[X3]D[tBuAla][S5]DDAAF[R5]A[3Thi][Bta][S5]A-NH2; staple 1-4, 10-14 (inferred)), the IC50 worked out at 2080 nM.

Consider `CC(=O)N1CCC[C@]12CC=CCCC[C@@](C)(C(=O)N[C@@H](CC(=O)O)C(=O)N[C@@H](CC(=O)O)C(=O)NC(C)(C)C(=O)N[C@@H](C)C(=O)N[C@@H](Cc1ccccc1)C(=O)N[C@]1(C)CCCC=CCCC[C@@](C)(C(=O)N[C@@H](C)C(N)=O)NC(=O)[C@H](Cc3csc4ccccc34)NC(=O)[C@H](Cc3ccsc3)NC(=O)[C@H](C)NC1=O)NC(=O)[C@H](CC(C)(C)C)NC(=O)[C@H](CC(=O)O)NC2=O` [I-1780, Ac-PL3-Asp-Npg-S5-Asp-Asp-Aib-Ala-Phe-R5-Ala-3Thi-BztA-S5-Ala-NH2] (Ac-[X3]D[tBuAla][S5]DD[Aib]AF[R5]A[3Thi][Bta][S5]A-NH2; staple 1-4, 10-14 (inferred)), for which the IC50 was found to be 4190 nM.

Regarding `CC(=O)N1CCC[C@]12CC=CCCC[C@@](C)(C(=O)N[C@@H](CC(=O)O)C(=O)N[C@@H](CC(=O)O)C(=O)NC(C)(C)C(=O)N[C@@H](C)C(=O)N[C@@H](Cc1ccccc1)C(=O)N[C@]1(C)CCCC=CCCC[C@@](C)(C(=O)N[C@@H](C)C(N)=O)NC(=O)[C@H](Cc3csc4ccccc34)NC(=O)[C@H](Cc3ccsc3)NC(=O)[C@H](C)NC1=O)NC(=O)[C@H](CC(C)(C)C)NC(=O)[C@H](CC(=O)O)NC2=O` [I-1781, Ac-PL3-Asp-Npg-S5-Asp-Asp-Aib-Ala-Phe-R5-Ala-3Thi-BztA-S5-Ala-NH2] (Ac-[X3]D[tBuAla][S5]DD[Aib]AF[R5]A[3Thi][Bta][S5]A-NH2; staple 1-4, 10-14 (inferred)), the IC50 was 8450 nM.

On to `CC(=O)N1CCC[C@]12CC=CCCCC1(CCCC=CCCCOC(=O)N3CC[C@@](C(=O)N[C@@H](Cc4ccsc4)C(=O)N[C@@H](Cc4csc5ccccc45)C(=O)N[C@@H](CCC(N)=O)C(N)=O)(C3)NC(=O)[C@H](CC(C)C)NC(=O)[C@H](Cc3ccccc3)NC(=O)[C@H](C)NC(=O)[C@H](C)NC(=O)[C@H](Cc3ccc(O)cc3)NC(=O)[C@H](CC(=O)O)NC1=O)NC(=O)[C@H](CC(C)(C)C)NC(=O)[C@H](CC(=O)O)NC2=O` (stereo partly drawn) [I-1784, Ac-PL3-Asp-Npg-B5-Asp-Tyr-Ala-Ala-Phe-Leu-PyrS2-3Thi-BztA-Gln-NH2], for which the half-maximal inhibitory concentration (IC50) was 528 nM.

For the compound `CC(=O)N1CCC[C@]12CC=CCCCC1(CCCC=CCCCOC(=O)N3CC[C@@](C(=O)N[C@@H](Cc4ccsc4)C(=O)N[C@@H](Cc4csc5ccccc45)C(=O)N[C@@H](CCC(N)=O)C(N)=O)(C3)NC(=O)[C@H](CC(N)=O)NC(=O)[C@H](Cc3ccccc3)NC(=O)[C@H](C)NC(=O)[C@H](C)NC(=O)[C@H](CCc3ccc(O)cc3)NC(=O)[C@H](CC(=O)O)NC1=O)NC(=O)[C@H](CC(C)(C)C)NC(=O)[C@H](CC(=O)O)NC2=O` (stereo partly drawn) [I-1785, Ac-PL3-Asp-Npg-B5-Asp-hTyr-Ala-Ala-Phe-Asn-PyrS2-3Thi-BztA-Gln-NH2], the IC50 was determined as 31 nM.

In the case of `CC(=O)N1CCC[C@]12CC=CCCCC1(CCCC=CCCCOC(=O)N3CC[C@@](C(=O)N[C@@H](Cc4ccsc4)C(=O)N[C@@H](Cc4csc5ccccc45)C(=O)N[C@@H](CCC(N)=O)C(N)=O)(C3)NC(=O)[C@H](CC(C)C)NC(=O)[C@H](Cc3ccccc3)NC(=O)[C@H](C)NC(=O)[C@H](C)NC(=O)[C@H](CCc3ccc(O)cc3)NC(=O)[C@H](CC(=O)O)NC1=O)NC(=O)[C@H](CC(C)(C)C)NC(=O)[C@H](CC(=O)O)NC2=O` (stereo partly drawn) [I-1787, Ac-PL3-Asp-Npg-B5-Asp-hTyr-Ala-Ala-Phe-Leu-PyrS2-3Thi-BztA-Gln-NH2], the half-maximal inhibitory concentration (IC50) was 776 nM.

As to `CC(=O)N1CCC[C@]12CC=CCCCC1(CCCC=CCCCOC(=O)N3CC[C@@](C(=O)N[C@@H](Cc4ccsc4)C(=O)N[C@@H](Cc4csc5ccccc45)C(=O)N[C@@H](CCC(N)=O)C(N)=O)(C3)NC(=O)[C@H](CCO)NC(=O)[C@H](Cc3ccccc3)NC(=O)[C@H](C)NC(=O)[C@H](C)NC(=O)[C@H](Cc3c[nH]c4ccccc34)NC(=O)[C@H](CC(=O)O)NC1=O)NC(=O)[C@H](CC(C)(C)C)NC(=O)[C@H](CC(=O)O)NC2=O` (stereo partly drawn) [I-1789, Ac-PL3-Asp-Npg-B5-Asp-Trp-Ala-Ala-Phe-Hse-PyrS2-3Thi-BztA-Gln-NH2], the IC50 amounted to 183 nM.
